Laboratory results from patent US7951826B2, “Pyrrolidine derivatives as histamine H3 receptor antagonists” (Eli Lilly and Company, priority 2005, dated 2011).

Molecular target: T1, H3R membranes (H3R8-expressing HEK293 cell line) (Homo sapiens, UniProt Q9Y5N1)
T1 construct: expressed in transfected cells; pcDNA3.1(+) vector, G418 selection)
Test: [35S] GTP gamma [S] binding assay
Assay type: biochemical
Details: inhibition of [35S]GTP gamma S binding to H3R membranes in presence of agonist R(-)alpha methylhistamine
Protocol: Membranes isolated as described in (Preparation of Histamine Receptor Subtype Membranes) are used in a [35S]GTPχS functional assay. Binding of [35S]GTPχS to membranes indicates agonist activity. Compounds of the invention of Formula I or Formula II are tested for their ability to inhibit binding in the presence of agonists. Alternately, the same transfected cell lines are used for a cAMP assay wherein H3R agonists inhibit forskolin-activated synthesis of cAMP. Compounds of Formula I or Formula II are tested for their ability to permit forskolin-stimulated cAMP synthesis in the presence of agonist.
cDNA for the human histamine 3 receptor is cloned and expressed as described in (A. Preparation H1R membranes), above. Transfected cells are selected using G418 ([…]), grown, and tested for histamine binding by the SPA described above. For total binding, cells are assayed in a SPA reaction described above containing 50 mM Tris-HCL (assay buffer), pH 7.6, 1 mg wheat germ agglutinin SPA beads (Amersham Pharmacia Biotech, #RPNQ0001), and 1 nM (^3H)-n-alpha-methylhistamine (NEN, NET1027) (total volume per well=200 μl). Thioperimide is added to determine non-specific binding. […]
Antagonist activity of selected compounds is tested for inhibition of [35S] […] Plates are counted in Wallac Trilux 1450 Microbeta scintillation counter for 1 minute. […]

T1 sequence (Q9Y5N1 whole entry): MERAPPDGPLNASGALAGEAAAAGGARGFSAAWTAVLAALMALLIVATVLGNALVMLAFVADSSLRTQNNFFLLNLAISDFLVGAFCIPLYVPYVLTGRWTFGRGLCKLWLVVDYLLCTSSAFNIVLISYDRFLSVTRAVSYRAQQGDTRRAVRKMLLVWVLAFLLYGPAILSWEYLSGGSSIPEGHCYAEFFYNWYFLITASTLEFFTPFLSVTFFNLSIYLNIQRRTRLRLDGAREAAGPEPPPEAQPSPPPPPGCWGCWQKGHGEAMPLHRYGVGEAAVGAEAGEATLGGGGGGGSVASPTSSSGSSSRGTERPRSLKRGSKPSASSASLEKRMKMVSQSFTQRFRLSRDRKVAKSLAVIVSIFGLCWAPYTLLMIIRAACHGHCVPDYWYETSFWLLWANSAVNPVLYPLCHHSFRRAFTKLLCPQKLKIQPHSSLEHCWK

Compound	Ki
COc1ccc(C(=O)N2CCC[C@H]2CN2CCCC2)cc1	73.6 nM
CCCCOc1ccc(C(=O)N2CCC[C@@H]2CN2CCCC2)cc1	145 nM
